The source of these data is ChEMBL document CHEMBL3227972, “Correlation of carbonic anhydrase inhibitory activities of benzenesulfonamides with the data obtained by use of nitrogen-14 nuclear quadrupole resonance” (J Med Chem, 1979).

The test is filed under the species Homo sapiens. Put plainly: Inhibition of carbonic anhydrase (unknown origin) relative to sulfanilamide.

`NS(=O)(=O)c1ccc(Cl)cc1` showed a fold change (FC) of 18.

In turn, `NS(=O)(=O)c1ccccc1` displayed a fold change (FC) of 4.

In turn, `NS(=O)(=O)c1ccc([N+](=O)[O-])cc1` returned a fold change (FC) of 23.

Regarding `Nc1ccc(S(N)(=O)=O)cc1`, the fold change (FC) was 1.

As for `Nc1cccc(S(N)(=O)=O)c1`, the fold change (FC) worked out at 2.5.

As to `Cc1ccccc1S(N)(=O)=O`, the fold change (FC) amounted to 1.8.
